Experimental data reported in patent publication US20240279217A1, “Heterocyclic compounds for the treatment of tuberculosis” (TECNIMEDE - SOCIEDADE TÉCNICO-MEDICINAL, SA, priority 2021, published 2024).
Converted amounts (≈) assume the structure as drawn. Where a name gives a salt, the structure may show the parent alone. Read-outs that look alike come from different tables or passages of the source.

Experiments:
HepG2 cell line = test: In vitro cytotoxicity assay (MTS tetrazolium reduction); type: cell-based; conditions: HepG2, 48 h
Procedure: In an embodiment, in vitro cytotoxicity assay was carried out. In vitro cytotoxicity assay was performed in HepG2 cell line using a tetrazolium reduction assay for cell viability evaluation (MTS reduction as described by Cory A. et al (Cancer Commun. 1991, 3 (7), 207-212)). The assay was performed in 96-well plates for 48 h at 37° C. and 5% CO2 in incubation medium (low glucose DMEM with Glutamax, 10% FBS, 1% Pen/Strep and DMSO). Cells were exposed to 8 different compound concentrations in successive dilutions (usually, base 2), plus a positive control (a compound in a concentration known to decrease cell viability above 50%) and a negative control (incubation medium). Six replicate wells were assayed for each condition. Compound stock solutions were prepared in DMSO at 20 mM, whenever possible, filter sterilized, aliquoted and stored at −20° C. The maximum compound concentrations tested depend on its solubility in incubation medium, and on the maximum DMSO percentage allowable without loss of cell viability. At the end of the incubation period, tetrazolium reagent was added (CellTiter 96′ AQueous Solution from Promega); cells were incubated for another 3 hours in order to promote tetrazolium reduction to formazan by viable cells. The amount of soluble formazan produced was evaluated by 490 nm absorbance reading in a spectrophotometer plate reader. […] Whenever possible, IC50 was calculated as the concentration of compound that reduces cell viability by 50%.

[1] = system: H37Rv M. tuberculosis (strain ATCC 25618); test: Mycobacterium tuberculosis susceptibility assay REMA (resazurin microtiter assay); type: cell-based; conditions: for MIC: Mycobacterium tuberculosis, 144 h, read-out: REMA MIC; for REMA MIC: Table 2
[2] = MTB growth REMA, H37Rv, Middlebrook 7H9, 6 days at 37° C.
[3] = Homo sapiens, Table 1, cytotoxicity, MTS, read-out: IC50
[4] = Table 2, cytotoxicity, MTS, read-out: IC50
[5] = Table 1, MTB growth REMA, H37Rv, Middlebrook 7H9, 6 days at 37° C.

Row | Structure (SMILES) | IC50 (HepG2 cell line; Homo sapiens) [µM] | MIC [1] [µM] | IC50 (HepG2 cell line; Table 2, cytotoxicity, MTS) [µM] | REMA MIC [1, 2] | IC50 (HepG2 cell line; [3]) [µM] | IC50 (HepG2 cell line; [4]) [µM] | MIC [1, 5] [µM]
1 | COc1cccc2ccc(N3CCC(c4nc(-c5ccc(C(F)(F)F)cc5)no4)CC3)nc12 [Compound 5, 5-(1-(8-methoxyquinolin-2-yl)piperidin-4-yl)-3-(4-(trifluoromethyl)phenyl)-1,2,4-oxadiazole hydrochloride] | 50 to 100 | 7.8 to 15.6 |  |  |  |  | 
2 | COc1cc(OC)cc(-c2noc(C3CCN(c4ccc5cccc(OC)c5n4)CC3)n2)c1 [Compound 6, 3-(3,5-dimethoxyphenyl)-5-(1-(8-methoxyquinolin-2-yl)piperidin-4-yl)-1,2,4-oxadiazole] | > 100 | 7.8 to 15.6 (≈ 3.48 to 6.97 µg/mL) | > 100 | +++ (7.8-15.6) |  |  | 
3 | COc1cccc2ccc(N3CCC(c4nc(-c5cccc(C(F)(F)F)c5)no4)CC3)nc12 [Compound 7, 5-(1-(8-methoxyquinolin-2-yl)piperidin-4-yl)-3-(3-(trifluoromethyl)phenyl)-1,2,4-oxadiazole] | > 100 | 15.6 to 31.5 (≈ 7.09 to 14.3 µg/mL) |  |  |  |  | 
4 | COc1cccc2ccc(N3CCC(c4nc(-c5cccnc5)no4)CC3)nc12 [Compound 10, 5-(1-(8-methoxyquinolin-2-yl)piperidin-4-yl)-3-(pyridin-3-yl)-1,2,4-oxadiazole hydrochloride] | 50 to 100 | 15.6 to 31.5 |  |  |  |  | 
5 | COc1cccc2ccc(N3CCC(c4nc(-c5ccc(C(F)(F)F)nc5)no4)CC3)nc12 [Compound 11, 5-(1-(8-methoxyquinolin-2-yl)piperidin-4-yl)-3-(6-(trifluoromethyl)pyridin-3-yl)-1,2,4-oxadiazole] | 20 to 50 | < 7.8 |  |  |  |  | 
6 | Clc1cccc2ccc(N3CCC(c4nc(-c5cccnc5)no4)CC3)nc12 [Compound 18, 5-(1-(8-chloroquinolin-2-yl)piperidin-4-yl)-3-(pyridin-3-yl)-1,2,4-oxadiazole hydrochloride] | 50 to 100 | 15.6 to 31.5 |  |  |  |  | 
7 | COc1ccc2nc(N3CCC(c4nc(-c5cccnc5)no4)CC3)ccc2c1 [Compound 21, 5-(1-(6-methoxyquinolin-2-yl)piperidin-4-yl)-3-(pyridin-3-yl)-1,2,4-oxadiazole] |  |  |  | ++++ (<7.8) | > 100 | > 100 | < 7.8
8 | COc1cccc2ccc(N3CCC(c4nc(-c5ccc(O)cc5)no4)CC3)nc12 [Compound 24, 4-(5-(1-(8-methoxyquinolin-2-yl)piperidin-4-yl)-1,2,4-oxadiazol-3-yl)phenol] |  |  |  | +++ (7.8-15.6) | > 100 | > 100 | 7.8 to 15.6 (≈ 3.14 to 6.28 µg/mL)
9 | c1cncc(-c2noc(C3CCN(c4ccc5cc(-c6ccncc6)ccc5n4)CC3)n2)c1 [Compound 27, 3-(pyridin-3-yl)-5-(1-(6-(pyridin-4-yl)quinolin-2-yl)piperidin-4-yl)-1,2,4-oxadiazole] |  |  |  | ++++ (<7.8) | > 100 | > 100 | < 7.8
10 | COc1cccc2ccc(N3CCC(c4nc(-c5ccc(Cl)nc5)no4)CC3)nc12 [Compound 31, 3-(6-chloropyridin-3-yl)-5-(1-(8-methoxyquinolin-2-yl)piperidin-4-yl)-1,2,4-oxadiazole hydrochloride] | 20 to 50 | 15.6 to 31.5 |  |  |  |  | 
11 | COc1cccc2ccc(N3CCC(c4nc(-c5ccc(N6CCCCC6)nc5)no4)CC3)nc12 [Compound 33, 5-(1-(8-methoxyquinolin-2-yl)piperidin-4-yl)-3-(6-(piperidin-1-yl)pyridin-3-yl)-1,2,4-oxadiazole] | > 100 | < 7.8 | > 100 | ++++ (<7.8) |  |  | 
12 | COc1cccc2ccc(N3CCC(c4nc(-c5ccc(N6CCNCC6)nc5)no4)CC3)nc12 [Compound 34, 5-(1-(8-methoxyquinolin-2-yl)piperidin-4-yl)-3-(6-(piperazin-1-yl)pyridin-3-yl)-1,2,4-oxadiazole] |  |  |  |  | < 20 |  | 15.6 to 31.5 (≈ 7.36 to 14.9 µg/mL)
13 | COc1cccc2ccc(N3CCC(c4nc(-c5ccc(NCCO)nc5)no4)CC3)nc12 [Compound 35, 2-((5-(5-(1-(8-methoxyquinolin-2-yl)piperidin-4-yl)-1,2,4-oxadiazol-3-yl)pyridin-2-yl)amino)ethan-1-ol hydrochloride] | > 100 | 15.6 to 31.5 |  |  |  |  | 
14 | COc1cccc2ccc(N3CCC(c4nc(-c5ccc(N6CCCC6)nc5)no4)CC3)nc12 [Compound 50, 5-(1-(8-methoxyquinolin-2-yl)piperidin-4-yl)-3-(6-(pyrrolidin-1-yl)pyridin-3-yl)-1,2,4-oxadiazole hydrochloride] | > 100 | 7.8 to 15.6 | > 100 | +++ (7.8-15.6) |  |  | 
